Measurements from patent US4464383A, “Immunomodulator containing trithiazole pentamethine cyanine derivative” (priority 1981, dated 1984).
Where two headings read alike, the source gives them in different places.

Columns and labels:
Clinical test, Case 1 = format: in vivo, patient; details: 50 μg. once a day, oral
[1] = prior art; cited from earlier work
Acute toxicity (LD50) = details: mouse, in vivo, mice, 7 days observation
Method: Eight male ddY mice 5 to 6 weeks old weighing 25 to 30 g. were used as one group. A 5% suspension of the compound to be tested in gum arabic was administered intraperitoneally, intravenously or orally using a stomach tube. The animals were kept under observation for 7 days. The numbers of dead animals were counted and the LD50 values were calculated by the Van der Warden method.

[2] = Pharmacological activities and side-effects, general statements
[3] = Inhibition of adjuvant arthritis in rat, preventive effect (paw volume); format: in vivo, SD rats
Method: (§1) Five SD rats 7 to 8 weeks old weighing about 150 g. were used as one group. A dispersion of mycobacterium butyricium in liquid parrafin in a concentration of 12 mg./ml. was injected intracutaneously into the footpad of the right hind foot in a dose of 0.05 ml./rat to cause an adjuvant arthritis (AA). For 30 days after the injection of the adjuvant, the volume of both hind feet was measured by a mercury plethysmography and AA was estimated from the obtained measurements.
(§2) With respect to Compound Nos. 1, 3 and 10, the preventive effect on AA was examined. The oral administration of the compound to be tested was begun at the same time as the administration of the adjuvant and continued for 30 days once a day. The same test was carried out with D-penicillamine and Levamisole.

[4] = Effect on carrageenan-induced edema in rat; format: in vivo, SD rats; details: dose 0.005 to 0.05 μg./animal, oral, 30 minutes before carrageenan
Method: Five SD rats 7 to 8 weeks old weighing about 150 g. were used as one group. A 1% dispersion of carrageenan was injected intracutaneously into the foot pad of the right hind foot in a dose of 0.1 ml./rat. For 6 hours after the injection, the volume of the foot subjected to the injection was measured by a mercury plethysmography and the carrageenan-induced edema was estimated from the obtained measurements. Compound No. 3 was orally administered 30 minutes before the injection of the carrageenan dispersion.

Clinical test, Case 2 = format: in vivo, patient
[5] = Change in body weight of rat with adjuvant arthritis; format: in vivo, SD rats; details: D-penicillamine or Levamisole; 1st, 10th, 20th and 30th day
Method: as §1, §2
During the test of the preventive effect on AA as described in the above (1), the body weight of each rat was measured on 1st, 10th, 20th, and 30th day.

[6] = dose 0.05 μg./animal, oral, once a day for 30 days
[7] = 100 μg. once a day, oral, after 5 days
[8] = after 3 weeks, twice a week after 7 days, oral
[9] = dose 1.5 mg./animal (even at a higher dose)

CCCCCCCN1C(C)=CS\C1=C/C=C(/C=C/c1scc(C)[n+]1CCCCCCC)c1scc(C)[n+]1CCCCCCC
side-effect (Clinical test, Case 1): no side-effect
therapeutic effect (Clinical test, Case 1): excellent therapeutic effect
inflammation at wrist articulatio coxae and violent pain (Clinical test, Case 1; after 5 days): almost removed
stiffness in the morning and systemic malaise (Clinical test, Case 1; after 5 days): relieved
mobility (Clinical test, Case 1; morning of the seventh day): could arise from a sickbed and go down the stairs with ease
known pharmacological activities [1]: antibacterial activity, the acceleration of wound healing, the stimulation of reticular hematopoietic organ and endocrine organ, and the enhancement of antibody formation
LD50 at 168 h (Acute toxicity (LD50); ip, i.p., read-out: LD50 i.p.): 100 mg/kg
LD50 at 168 h (Acute toxicity (LD50); iv, i.v., read-out: LD50 i.v.): 12 mg/kg
LD50 at 168 h (Acute toxicity (LD50); po, p.o., read-out: LD50 p.o.): > 1400 mg/kg
side-effects ([2]; cytotoxicity (e.g. granulocytopenia), vomiting, nausea, pyrexia, rash and myasthenia): does not have side-effects
immunomodulating action ([2]; immunological function enhanced): shows an immunosuppressive effect
immunomodulating action ([2]; immunological function lowered): shows an immunological activating effect
immunomodulating action ([2]; normal immunological function): has no influence on the normal immunological function
inhibition of AA, preventive effect ([3]; dose 0.005 μg./animal, oral, once a day for 30 days): inhibited AA
inhibition of AA, preventive effect [3, 6]: inhibit AA
anti-inflammatory action on carrageenan-induced edema [4]: did not show anti-inflammatory action
systemic malaise and stiffness in the morning (Clinical test, Case 2; 100 μg. once a day, oral, after 3 days): relieved
inflammation at the joints (Clinical test, Case 2; [7]): relieved
need for suppository of Indometacin (Clinical test, Case 2; [7]): no necessity for administering the suppository of Indometacin
sleep (Clinical test, Case 2; [7]): became to sleep well
side-effect (Clinical test, Case 2; 100 μg., oral): No side-effect was observed
ability to walk (Clinical test, Case 2; [8]): became to be able to walk
swelling (hydrocele) at the joints (Clinical test, Case 2; [8]): improved

CCCCCCCCN1C(C)=CS\C1=C/C=C(/C=C/c1scc(C)[n+]1CCCCCCCC)c1scc(C)[n+]1CCCCCCCC
LD50 at 168 h (Acute toxicity (LD50); ip, i.p., read-out: LD50 i.p.): 120 mg/kg
LD50 at 168 h (Acute toxicity (LD50); iv, i.v., read-out: LD50 i.v.): 13.5 mg/kg
LD50 at 168 h (Acute toxicity (LD50); po, p.o., read-out: LD50 p.o.): > 1400 mg/kg

O=C([O-])c1ccccc1Nc1cc(Cl)ccc1C(=O)[O-].[Na+].[Na+] [CCA, N-(2-carboxyphenyl)-4-chloroanthranilic acid disodium salt]
toxicity of known immunomodulators [1]: severe toxicities

CC(C)(S)[C@@H](N)C(=O)O [D-penicillamine]
toxicity of known immunomodulators [1]: severe toxicities
inhibition of AA, preventive effect [3, 9]: do not inhibit AA
change in body weight compared with Control [5]: no significant difference

COc1ccc2c(c1)c(CC(=O)O)c(C)n2C(=O)c1ccc(Cl)cc1 [Indometacin, reference compound]
side-effect of the medicines used before (Clinical test, Case 2; human, in vivo): gastric ulcer, urticaria and diarrhea
condition of the patient on previous treatment (Clinical test, Case 2; suppository of Shiozol and that of Indometacin, before Compound No. 3): took a turn for the worse

c1ccc([C@H]2CN3CCSC3=N2)cc1 [Levamisole]
toxicity of known immunomodulators [1]: severe toxicities
inhibition of AA, preventive effect [3, 9]: do not inhibit AA
change in body weight compared with Control [5]: no significant difference

CC1=CSC(=CC=C(C=Cc2scc(C)[n+]2C)c2scc(C)[n+]2C)N1C [compound 1]
LD50 at 168 h (Acute toxicity (LD50); ip, i.p., read-out: LD50 i.p.): 23.4 mg/kg
LD50 at 168 h (Acute toxicity (LD50); iv, i.v., read-out: LD50 i.v.): 6.25 mg/kg
LD50 at 168 h (Acute toxicity (LD50); po, p.o., read-out: LD50 p.o.): > 1400 mg/kg
inhibition of AA, preventive effect [3, 6]: inhibit AA

CCCCN1C(C)=CSC1=CC=C(C=Cc1scc(C)[n+]1CCCC)c1scc(C)[n+]1CCCC [compound 2]
LD50 at 168 h (Acute toxicity (LD50); ip, i.p., read-out: LD50 i.p.): 51 mg/kg
LD50 at 168 h (Acute toxicity (LD50); iv, i.v., read-out: LD50 i.v.): 8.5 mg/kg
LD50 at 168 h (Acute toxicity (LD50); po, p.o., read-out: LD50 p.o.): > 1400 mg/kg

CCCCCCCCCCCCN1C(C)=CSC1=CC=C(C=Cc1scc(C)[n+]1CCCCCCCCCCCC)c1scc(C)[n+]1CCCCCCCCCCCC [compound 10]
LD50 at 168 h (Acute toxicity (LD50); ip, i.p., read-out: LD50 i.p.): 300 mg/kg
LD50 at 168 h (Acute toxicity (LD50); iv, i.v., read-out: LD50 i.v.): 45.2 mg/kg
LD50 at 168 h (Acute toxicity (LD50); po, p.o., read-out: LD50 p.o.): > 1400 mg/kg
inhibition of AA, preventive effect [3, 6]: inhibit AA
